Measured values taken from DBAASP.
Values after ≈ are worked out from the molar mass of the structure shown. One block for each compound: values may come before it.

Key:
Assay in all cases: ≥ marks a high value that may be exact or a test limit, other limits are often not marked, values filed in µg/mL are converted to µM
[1] = system: Acinetobacter baumannii ATCC 17978
[2] = system: Staphylococcus aureus C622
Escherichia coli O157:H7 = system: Escherichia coli O157:H7
Bacillus subtilis C626 = system: Bacillus subtilis C626
[3] = system: Pectobacterium carotovorum
[4] = system: Escherichia coli CCT 1457
[5] = system: Bacillus cereus ATCC 11778
[6] = system: Pseudomonas aeruginosa ATCC 15422
[7] = system: Staphylococcus aureus CCT 2580
[8] = system: Trichophyton mentagrophytes
Sporothrix schenckii = system: Sporothrix schenckii
Aspergillus fumigatus = system: Aspergillus fumigatus
[9] = system: Pseudomonas aeruginosa ATCC BAA-427
[10] = system: Escherichia coli ATCC 10536
[11] = system: Staphylococcus epidermidis NRRL B-4268
[12] = system: Bacillus subtilis ATCC 6633
Candida albicans = system: Candida albicans
[13] = system: Staphylococcus aureus ATCC 9144
[14] = system: Klebsiella pneumoniae ATCC 27736
Cryptococcus neoformans = system: Cryptococcus neoformans
[15] = system: Candida parapsilosis ATCC 22019
Staphylococcus aureus MR = system: Staphylococcus aureus MR
Vibrio cholerae = system: Vibrio cholerae
[16] = system: Salmonella enterica subsp. enterica serovar Typhi
[17] = system: Salmonella enterica subsp. enterica serovar Typhi ATCC 5784
Bacillus megaterium = system: Bacillus megaterium
[18] = system: Lysinibacillus sphaericus TISTR 678
[19] = system: Staphylococcus aureus 209P
[20] = system: Pseudomonas aeruginosa PAO1
[21] = system: Micrococcus luteus ATCC 9341
[22] = system: Streptococcus pyogenes COOK
Escherichia coli NIHJ = system: Escherichia coli NIHJ
[23] = system: Klebsiella pneumoniae XJ75297
[24] = system: Shigella flexneri ATCC 12022
[25] = system: Pseudomonas aeruginosa XJ75315
[26] = system: Staphylococcus aureus ATCC 29213
[27] = system: Pseudomonas aeruginosa ATCC 27853
[28] = system: Staphylococcus epidermidis
[29] = system: Escherichia coli ATCC 25922
Escherichia coli = system: Escherichia coli
[30] = system: Salmonella typhimurium SL1344
[31] = system: Escherichia coli ATCC 35218

Compound: CC[C@H](C)[C@H](NC(=O)[C@H](Cc1c[nH]c2ccccc12)NC(=O)[C@H](CCCN=C(N)N)NC(=O)[C@H](Cc1c[nH]c2ccccc12)NC(=O)[C@H](Cc1c[nH]c2ccccc12)NC(=O)[C@H](CCCCN)NC(=O)[C@@H](N)CCCN=C(N)N)C(=O)N[C@@H](CCCCN)C(=O)N[C@@H](Cc1c[nH]c2ccccc12)C(N)=O [RKWWRWIKW]
MIC [1]: 5 µM (≈ 7.22 µg/mL)
MIC [2]: 2.5 µM (≈ 3.61 µg/mL)
MIC (Escherichia coli O157:H7): 1.25 µM (≈ 1.8 µg/mL)
MIC (Bacillus subtilis C626): 20 µM (≈ 28.9 µg/mL)

Compound: CC[C@H](C)[C@H](N)C(=O)N[C@@H](CC(N)=O)C(=O)N[C@@H](Cc1c[nH]c2ccccc12)C(=O)N[C@@H](CCCCN)C(=O)N[C@@H](C)C(=O)N[C@@H](CC(C)C)C(=O)N[C@@H](CC(C)C)C(=O)N[C@@H](CC(=O)O)C(=O)N[C@@H](C)C(=O)N[C@@H](C)C(=O)N[C@@H](CCCCN)C(=O)N[C@@H](CCCCN)C(=O)N[C@H](C(=O)N[C@@H](CC(C)C)C(=O)O)C(C)C [INWKALLDAAKKVL]
MIC [4]: ≥ 39.5 µM
MIC [5]: ≥ 39.5 µM
MIC [6]: ≥ 316 µM
MIC [7]: ≥ 158 µM

Compound: CC(C)C[C@H](NC(=O)CNC(=O)[C@H](C)NC(=O)[C@H](CCCCN)NC(=O)[C@H](CCCCN)NC(=O)[C@@H](N)CC(N)=O)C(=O)N[C@@H](Cc1ccccc1)C(=O)N[C@H](C(=O)N[C@H](C(=O)N[C@@H](CCC(N)=O)C(=O)N[C@@H](Cc1ccccc1)C(=O)N1CCC[C@H]1C(=O)N[C@@H](CCCCN)C(=O)N[C@@H](CCCCN)C(=O)N[C@@H](Cc1ccc(O)cc1)C(=O)O)C(C)C)C(C)C [NKKAGLFVVQFPKKY]
MIC (Vibrio cholerae): ≥ 52 µM
MIC [16]: ≥ 64 µM
MIC [17]: ≥ 64 µM
MIC (Escherichia coli O157:H7): ≥ 64 µM
MIC (Bacillus megaterium): 28.3 µM (≈ 50 µg/mL)
MIC [18]: ≥ 64 µM

Other lines, results leading:

MIC [3]: 2.04 µM (≈ 4.92 µg/mL)
Compound: CC[C@H](C)[C@H](NC(=O)[C@H](CO)NC(=O)[C@H](CCCN=C(N)N)NC(=O)CNC(=O)[C@H](CCC(=O)O)NC(=O)[C@@H](N)CC(C)C)C(=O)N[C@@H](CO)C(=O)N[C@@H](CCCN=C(N)N)C(=O)N[C@H](C(=O)N[C@@H](CC(=O)O)C(=O)N[C@@H](CCC(=O)O)C(=O)N[C@@H](CC(C)C)C(=O)N[C@H](C(=O)N[C@@H](CCC(N)=O)C(=O)N[C@@H](CCC(N)=O)C(=O)N[C@@H](CCCN=C(N)N)C(=O)N[C@@H](CCC(N)=O)C(=O)N[C@@H](CCC(=O)O)C(=O)N[C@@H](CCCCN)C(=O)N[C@@H](CC(=O)O)C(=O)O)[C@@H](C)CC)[C@@H](C)CC [LEGRSISRIDELIQQRQEKD]

MIC [8]: 6 µM (≈ 11.8 µg/mL)
MIC (Sporothrix schenckii): 6 µM (≈ 11.8 µg/mL)
MIC (Aspergillus fumigatus): 8.4 µM (≈ 16.5 µg/mL)
MIC [9]: 3.2 µM (≈ 6.28 µg/mL)
MIC [10]: 3 µM (≈ 5.89 µg/mL)
MIC [11]: 6 µM (≈ 11.8 µg/mL)
MIC [12]: 6.8 µM (≈ 13.3 µg/mL)
MIC (Candida albicans): 9.6 µM (≈ 18.8 µg/mL)
MIC [13]: 5.1 µM (≈ 10 µg/mL)
MIC [14]: 3.2 µM (≈ 6.28 µg/mL)
MIC (Cryptococcus neoformans): 8.4 µM (≈ 16.5 µg/mL)
MIC [15]: 1.5 µM (≈ 2.94 µg/mL)
MIC (Staphylococcus aureus MR): 12.5 µM (≈ 24.5 µg/mL)
Compound: CC(C)C[C@H](NC(=O)[C@H](CCCCN)NC(=O)[C@H](CC(C)C)NC(=O)[C@@H](NC(=O)[C@H](CCCN=C(N)N)NC(=O)[C@H](CCCN=C(N)N)NC(=O)[C@@H](NC(=O)[C@H](Cc1c[nH]c2ccccc12)NC(=O)[C@H](CCCCN)NC(=O)[C@H](CCCN=C(N)N)NC(=O)[C@@H](NC(=O)[C@H](CCCN=C(N)N)NC(=O)[C@H](CCCN=C(N)N)NC(=O)[C@@H](N)C(C)C)C(C)C)C(C)C)C(C)C)C(=O)N[C@H](C(N)=O)C(C)C [VRRVRKWVRRVLKLV]

MIC [19]: 1.78 µM (≈ 6.25 µg/mL)
MIC [20]: 28.4 µM (≈ 99.9 µg/mL)
MIC [21]: 0.444 µM (≈ 1.56 µg/mL)
MIC [12]: 1.78 µM (≈ 6.25 µg/mL)
MIC [22]: 3.56 µM (≈ 12.5 µg/mL)
MIC (Escherichia coli NIHJ): 3.56 µM (≈ 12.5 µg/mL)
Compound: CC[C@H](C)[C@H](NC(=O)[C@H](CC(C)C)NC(=O)[C@H](CO)NC(=O)[C@H](Cc1ccccc1)NC(=O)[C@H](CC(C)C)NC(=O)[C@@H](N)CO)C(=O)N[C@@H](CCCCN)C(=O)N[C@@H](C)C(=O)NCC(=O)N[C@@H](C)C(=O)N[C@@H](CCCCN)C(=O)N[C@@H](Cc1ccccc1)C(=O)N[C@@H](CC(C)C)C(=O)NCC(=O)N[C@@H](CCCCN)C(=O)N[C@@H](CC(N)=O)C(=O)N[C@@H](CC(C)C)C(=O)N[C@@H](CC(C)C)C(=O)N[C@@H](CCCCN)C(=O)N[C@@H](CCC(N)=O)C(=O)NCC(=O)N[C@@H](C)C(=O)N[C@@H](CCC(N)=O)C(=O)N[C@@H](Cc1ccc(O)cc1)C(=O)N[C@@H](C)C(=O)N[C@@H](C)C(=O)N[C@H]1CSSC[C@@H](C(=O)O)NC(=O)[C@H](CCC(=O)O)NC(=O)[C@H](CCCCN)NC(=O)[C@H](CO)NC(=O)[C@H](C(C)C)NC(=O)[C@H](CCCCN)NC1=O [SLFSLIKAGAKFLGKNLLKQGAQYAACKVSKEC]

MIC [23]: 0.41 µM (≈ 1 µg/mL)
MIC [24]: 0.103 µM (≈ 0.25 µg/mL)
MIC [25]: 0.41 µM (≈ 1 µg/mL)
MIC [26]: 105 µM (≈ 256 µg/mL)
MIC [27]: 6.57 µM (≈ 16 µg/mL)
MIC [28]: 6.57 µM (≈ 16 µg/mL)
MIC [29]: 0.41 µM (≈ 1 µg/mL)
MIC (Escherichia coli): 0.41 µM (≈ 1 µg/mL)
MIC [30]: 0.41 µM (≈ 1 µg/mL)
MIC [31]: 0.41 µM (≈ 1 µg/mL)
Compound: CC[C@H](C)[C@H](NC(=O)[C@@H](NC(=O)[C@@H]1CCCN1C(=O)[C@@H](NC(=O)[C@@H]1CCCN1C(=O)[C@H](CCCCN)NC(=O)[C@H](CCCCN)NC(=O)[C@H](CO)NC(=O)CN)C(C)C)[C@@H](C)CC)C(=O)N[C@@H](Cc1ccc(O)cc1)C(=O)N[C@@H](CS)C(=O)N[C@@H](CC(N)=O)C(=O)N[C@@H](CCCN=C(N)N)C(=O)N[C@@H](CCCN=C(N)N)C(=O)N[C@H](C(=O)NCC(=O)N[C@@H](CCCCN)C(=O)N[C@@H](CS)C(=O)N[C@@H](CCC(N)=O)C(=O)N[C@@H](CCCN=C(N)N)C(=O)N[C@@H](CCSC)C(=O)O)[C@@H](C)O [GSKKPVPIIYCNRRTGKCQRM]
